Here are results for one compound from PMC11513893, “Discovery of Oral Degraders of the ROS1 Fusion Protein with Potent Activity against Secondary Resistance Mutations” (Journal of Medicinal Chemistry, 2024).

The target of one assay is CAMK2D (Homo sapiens, UniProt Q13557). Nature of the assay: Kinase assay. The assay is classed as biochemical. Particulars: average of duplicate measurements.
Another assay has as its target ALK (Homo sapiens, UniProt Q9UM73). Nature of the assay: Kinase assay. As to conditions: average of duplicate measurements. The assay is classed as biochemical.
A further assay has as its target ROS1 (G2032R) (Homo sapiens, UniProt P08922, G2032R). Nature of the assay: Kinase assay. The assay is classed as biochemical. Particulars: average of duplicate measurements.
A further assay deals with Ba/F3 ROS1-G2032R. Nature of the assay: Antiproliferation assay. The assay is classed as cell-based, mouse. As to conditions: Mus musculus, BaF3; Ba/F3 cells, cell growth inhibition, 72 h.
The next assay has as its target NUAK1 (Homo sapiens, UniProt O60285). Put plainly: Kinase assay. In kind it is biochemical. Particulars: average of duplicate measurements.
The next assay deals with H2228 cells. Nature of the assay: Whole cell proteomic analysis. Particulars: 100 nM, 24 h. The assay is classed as cell-based, human. The method, then: To minimize the effect of signaling blockade on proteomic changes, we decided that a more accurate quantitative determination of proteomic alterations would be to compare degrader-treated to inhibitor-treated.
Cell pellets were dissolved in 1 mL of RIPA buffer, 10 μL of phosphatase inhibitor, and 10 μL of protease inhibitor. Proteins were extracted and concentration was determined by the BCA assay. The protein samples were digested with sequencing grade modified trypsin (Promega Corp; Madison, WI) according to the manufacturer’s instructions. The peptides were labeled using the TMT Isobaric Mass Tagging kit (Thermo Fisher Scientific; # 90,060–90,061; Waltham, MA). The labeled peptide aliquots were then pooled together for subsequent fractionation and analysis. The TMT-labeled peptide mixtures were separated by an automated Easy-nLC1000 system coupled with a Q-Exactive spectrometer (Thermo Finnigan, Waltham, MA). The identification of proteins was performed using Proteome Discoverer software v2.3 (Thermo Fisher Scientific; Waltham, MA) and Mascot v2.6 (Matrix Science, Boston, MA), based on “Uniprot Human” database. The proteins that were identified on the basis of at least one unique peptide were included in the data. The ratios of TMT reporter ion abundance in 9o-treated cells and inhibitor-treated cells were used to calculate protein relative abundance.

The target in another assay is EGFR (Homo sapiens, UniProt P00533). Nature of the assay: Kinase assay. The assay is classed as biochemical. Particulars: average of duplicate measurements.
Another assay concerns the target ERBB4/HER4 (Homo sapiens, UniProt Q15303). Put plainly: Kinase assay. The assay is classed as biochemical. As to conditions: average of duplicate measurements.
Assay [1] deals with Ba/F3 CD74-ROS1 WT xenograft tumors. Put plainly: Mouse efficacy study, Ba/F3 CD74-ROS1 xenograft. In kind it is in vivo. As to conditions: NOD/SCID mice. The method, then:
All the procedures related to animal handling, care, and treatment in this study were performed according to guidelines approved by the Institutional Animal Care and Use Committee (IACUC) of Xavier University of Louisiana following the guidance of the AAALAC. Ba/F3-ROS1 and Ba/F3-ROS1-G2032R cells were maintained in RPMI 1640 medium supplemented with 10% fetal bovine serum. The cells growing in an exponential growth phase were harvested and counted for tumor inoculation. Female NOD/SCID mice 6–8 weeks of age were allowed to adapt to laboratory conditions for 10 days prior to dosing and were allowed food and water ad libitum. Each mouse was inoculated subcutaneously in the right flank with Ba/F3 CD74-ROS1 or Ba/F3 SL34A2-ROS1 G2032R cells (1 × 10^6) in 0.2 mL of PBS mixed with Matrigel (50:50) for tumor development.

A further assay concerns the target ROS1 (G2101C) (Homo sapiens, UniProt P08922, G2101C). Put plainly: Kinase assay. The assay is classed as biochemical. As to conditions: average of duplicate measurements.
The test system of assay [2] is Ba/F3 ROS1 (SLC34A2) G2032R-F2075C. Put plainly: Antiproliferation assay. The assay is classed as cell-based. Particulars: Mus musculus, BaF3; Ba/F3 cell line. How it is done: (§1) Ba/F3 immortalized murine bone marrow–derived pro-B cells were obtained from Creative Biogene (Shirley, NY) and cultured in RPMI supplemented with 10% FBS and IL3 (0.5 ng/mL). Ba/F3 cells expressing ROS1 variants were maintained in RPMI supplemented with 10% FBS and puromycin (0.7 mg/mL). Crizotinib, ceritinib, brigatinib, repotrectinib, and lorlatinib were purchased from MedChem Express. Each compound was dissolved in DMSO and serially diluted in RPMI for cell culture experiments.
(§2) To assess the 72 h effect of drug treatment on cell proliferation, 2000 to 3000 cells were plated in replicates of three in 96-well plates. The plates were placed in an incubator at 37 °C, 5% CO2 for 72 h. Following drug treatments, the cells were incubated with the Alamar Blue Assay reagent (BioRad), 5 μL each well for 4 h at 37 °C and 5% CO2. Luminescence was measured on a multiplate reader and analyzed. […] IC50 values were determined using a nonlinear regression model with a sigmoidal dose response in GraphPad. The data were collected based on triplicate experiments, and presented as mean ± SD.

Assay [3] deals with Ba/F3 ROS1 (SLC34A2) G2032R-D2113G. Put plainly: Antiproliferation assay. The assay is classed as cell-based. Particulars: Mus musculus, BaF3; Ba/F3 cell line. The method, then:
as §1, §2

Assay [4] has as its system Ba/F3 ROS1 (SLC34A2) F2075C-G1837E. Nature of the assay: Antiproliferation assay. As to conditions: Mus musculus, BaF3; Ba/F3 cell line. In kind it is cell-based. How it is done: as §1, §2

In general, IC50 refers to the concentration that gives 50% inhibition. Low readings indicate greater potency in that assay, high ones weaker potency in that assay.

CAMK2D, sequence (Q13557 whole entry, species assumed): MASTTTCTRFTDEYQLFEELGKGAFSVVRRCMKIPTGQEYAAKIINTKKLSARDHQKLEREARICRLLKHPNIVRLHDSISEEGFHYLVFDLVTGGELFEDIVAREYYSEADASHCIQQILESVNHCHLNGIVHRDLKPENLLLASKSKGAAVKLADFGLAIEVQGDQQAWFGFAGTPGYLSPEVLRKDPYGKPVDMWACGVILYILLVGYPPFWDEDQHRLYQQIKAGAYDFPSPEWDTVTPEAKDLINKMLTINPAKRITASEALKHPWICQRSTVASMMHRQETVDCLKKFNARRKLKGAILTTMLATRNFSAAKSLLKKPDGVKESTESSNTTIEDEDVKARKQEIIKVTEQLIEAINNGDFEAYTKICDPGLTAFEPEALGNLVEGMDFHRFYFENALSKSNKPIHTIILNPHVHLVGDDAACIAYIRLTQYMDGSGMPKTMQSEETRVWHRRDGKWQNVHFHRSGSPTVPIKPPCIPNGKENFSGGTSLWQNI
NUAK1, sequence (O60285 whole entry, species assumed): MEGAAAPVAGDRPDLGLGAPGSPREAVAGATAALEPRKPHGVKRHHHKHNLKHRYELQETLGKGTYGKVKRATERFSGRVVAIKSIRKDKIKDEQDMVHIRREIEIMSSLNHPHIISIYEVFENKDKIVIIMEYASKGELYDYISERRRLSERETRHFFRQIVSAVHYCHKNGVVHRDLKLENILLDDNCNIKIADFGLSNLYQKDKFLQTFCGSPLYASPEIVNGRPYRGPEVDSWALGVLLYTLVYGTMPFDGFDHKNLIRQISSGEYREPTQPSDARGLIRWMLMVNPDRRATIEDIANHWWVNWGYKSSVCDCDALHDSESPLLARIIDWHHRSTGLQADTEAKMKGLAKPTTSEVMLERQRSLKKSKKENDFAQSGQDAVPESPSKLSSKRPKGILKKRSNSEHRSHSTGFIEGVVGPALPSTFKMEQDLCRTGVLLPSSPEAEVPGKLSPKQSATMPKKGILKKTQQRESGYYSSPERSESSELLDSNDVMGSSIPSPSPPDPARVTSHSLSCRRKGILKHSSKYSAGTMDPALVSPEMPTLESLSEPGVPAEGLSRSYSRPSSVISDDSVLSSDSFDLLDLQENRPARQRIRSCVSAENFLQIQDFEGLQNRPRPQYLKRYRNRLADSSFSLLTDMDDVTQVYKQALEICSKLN
ERBB4/HER4, sequence (Q15303 26-1308): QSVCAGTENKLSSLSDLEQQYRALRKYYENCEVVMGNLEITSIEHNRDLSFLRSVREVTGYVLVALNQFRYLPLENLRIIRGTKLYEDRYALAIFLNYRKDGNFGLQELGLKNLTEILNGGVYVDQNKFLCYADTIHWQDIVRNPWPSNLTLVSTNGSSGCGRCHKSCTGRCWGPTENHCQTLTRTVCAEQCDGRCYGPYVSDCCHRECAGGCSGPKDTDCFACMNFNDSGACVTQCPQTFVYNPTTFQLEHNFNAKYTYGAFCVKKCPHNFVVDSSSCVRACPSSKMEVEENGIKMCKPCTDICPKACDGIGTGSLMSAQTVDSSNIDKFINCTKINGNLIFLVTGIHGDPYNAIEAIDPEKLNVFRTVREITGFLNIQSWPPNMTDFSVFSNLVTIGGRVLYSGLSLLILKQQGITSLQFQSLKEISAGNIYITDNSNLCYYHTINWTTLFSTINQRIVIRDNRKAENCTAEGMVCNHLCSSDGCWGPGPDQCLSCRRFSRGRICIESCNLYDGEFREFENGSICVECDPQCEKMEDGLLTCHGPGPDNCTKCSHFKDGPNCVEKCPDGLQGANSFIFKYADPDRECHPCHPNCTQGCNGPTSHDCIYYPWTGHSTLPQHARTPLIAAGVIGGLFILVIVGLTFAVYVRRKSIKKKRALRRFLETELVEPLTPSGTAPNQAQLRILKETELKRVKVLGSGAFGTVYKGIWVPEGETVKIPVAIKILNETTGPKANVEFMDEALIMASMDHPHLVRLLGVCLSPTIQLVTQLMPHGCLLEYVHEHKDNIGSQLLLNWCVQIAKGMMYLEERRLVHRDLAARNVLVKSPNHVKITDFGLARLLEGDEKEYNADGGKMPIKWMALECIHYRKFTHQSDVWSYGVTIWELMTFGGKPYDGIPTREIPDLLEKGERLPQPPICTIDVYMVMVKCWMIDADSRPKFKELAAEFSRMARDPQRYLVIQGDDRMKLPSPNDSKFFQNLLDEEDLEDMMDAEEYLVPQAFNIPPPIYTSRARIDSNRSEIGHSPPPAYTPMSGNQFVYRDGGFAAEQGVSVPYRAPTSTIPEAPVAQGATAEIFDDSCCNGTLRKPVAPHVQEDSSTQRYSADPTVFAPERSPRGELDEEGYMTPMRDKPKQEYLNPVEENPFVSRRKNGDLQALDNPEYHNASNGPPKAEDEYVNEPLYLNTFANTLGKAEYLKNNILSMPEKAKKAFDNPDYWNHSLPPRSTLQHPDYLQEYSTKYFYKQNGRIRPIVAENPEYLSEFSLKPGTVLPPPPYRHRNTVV
ALK, sequence (Q9UM73 19-1620, species assumed): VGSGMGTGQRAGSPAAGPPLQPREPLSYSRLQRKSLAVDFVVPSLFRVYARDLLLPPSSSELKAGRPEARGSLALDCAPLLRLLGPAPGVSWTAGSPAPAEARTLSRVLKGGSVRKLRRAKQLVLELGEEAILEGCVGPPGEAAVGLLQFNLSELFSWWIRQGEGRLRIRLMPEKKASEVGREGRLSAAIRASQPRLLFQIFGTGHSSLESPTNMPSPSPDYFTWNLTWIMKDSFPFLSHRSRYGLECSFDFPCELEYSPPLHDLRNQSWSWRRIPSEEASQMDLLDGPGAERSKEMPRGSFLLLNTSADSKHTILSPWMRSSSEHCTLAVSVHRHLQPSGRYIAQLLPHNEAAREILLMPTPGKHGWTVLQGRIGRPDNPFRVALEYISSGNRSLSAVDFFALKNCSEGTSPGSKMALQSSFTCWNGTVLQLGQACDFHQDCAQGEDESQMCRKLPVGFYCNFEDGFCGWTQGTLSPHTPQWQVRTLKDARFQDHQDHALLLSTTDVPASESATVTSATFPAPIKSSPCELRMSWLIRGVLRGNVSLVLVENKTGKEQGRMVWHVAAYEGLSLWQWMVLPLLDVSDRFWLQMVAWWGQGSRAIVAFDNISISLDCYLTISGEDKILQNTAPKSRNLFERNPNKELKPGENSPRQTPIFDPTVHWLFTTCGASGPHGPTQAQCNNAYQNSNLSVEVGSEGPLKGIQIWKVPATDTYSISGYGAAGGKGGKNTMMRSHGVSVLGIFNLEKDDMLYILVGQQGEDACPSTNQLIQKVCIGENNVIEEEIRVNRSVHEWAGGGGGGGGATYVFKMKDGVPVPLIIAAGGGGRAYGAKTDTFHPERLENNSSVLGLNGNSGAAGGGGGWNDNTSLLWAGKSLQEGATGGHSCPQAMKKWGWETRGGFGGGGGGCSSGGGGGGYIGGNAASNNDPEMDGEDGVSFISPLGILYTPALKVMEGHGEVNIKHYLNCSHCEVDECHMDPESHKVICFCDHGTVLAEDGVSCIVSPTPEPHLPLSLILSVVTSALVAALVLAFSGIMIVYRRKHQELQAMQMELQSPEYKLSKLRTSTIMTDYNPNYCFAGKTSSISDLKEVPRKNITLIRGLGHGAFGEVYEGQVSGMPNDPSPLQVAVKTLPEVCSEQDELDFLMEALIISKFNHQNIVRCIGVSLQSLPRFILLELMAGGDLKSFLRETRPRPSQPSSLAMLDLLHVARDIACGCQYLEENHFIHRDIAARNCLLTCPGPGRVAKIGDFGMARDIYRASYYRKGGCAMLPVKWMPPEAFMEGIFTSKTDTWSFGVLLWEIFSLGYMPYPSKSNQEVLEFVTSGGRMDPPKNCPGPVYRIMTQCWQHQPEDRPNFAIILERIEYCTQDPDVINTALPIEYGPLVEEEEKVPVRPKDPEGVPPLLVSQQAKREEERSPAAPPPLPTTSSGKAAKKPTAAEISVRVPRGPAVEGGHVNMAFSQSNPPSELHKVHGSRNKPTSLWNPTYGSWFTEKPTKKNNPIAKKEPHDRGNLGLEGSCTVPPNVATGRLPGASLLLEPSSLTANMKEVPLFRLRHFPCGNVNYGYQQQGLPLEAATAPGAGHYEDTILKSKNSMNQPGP

On to `COc1cc(N2CCC(N3CCN(CC4CCN(c5ccc6c(c5)CN(C5CCC(=O)NC5=O)C6=O)CC4)CC3)CC2)ccc1Nc1ncc(Cl)c(Nc2ccccc2P(C)(C)=O)n1` (centres unmarked) [9o, 3-(5-(4-((4-(1-(4-((5-Chloro-4-((2-(dimethylphosphoryl)phenyl)amino)pyrimidin-2-yl)amino)-3-methoxyphenyl)piperidin-4-yl)piperazin-1-yl)methyl)piperidin-1-yl)-1-oxoisoindolin-2-yl)piperidine-2,6-dione], for which the IC50 against CAMK2D stood at 39 nM; against ALK, 0.9 nM; on ROS1 (G2032R), 161 nM; in the assay with Ba/F3 ROS1-G2032R, 6.3 ± 2.1 nM; at NUAK1 it was 47 nM; at EGFR, 69 nM. Also, the half-inhibitory concentration (IC50) amounted to 27 nM on ERBB4/HER4; 83 nM at ROS1 (G2101C); 58.4 ± 11.4 nM in assay [2]; 2.9 ± 0.5 nM in assay [3]; 0.4 ± 0.3 nM in assay [4]. For the same compound, in the assay on H2228 cells, the “kinases significantly degraded (proteomics, degrader-treated vs brigatinib-treated)” value is listed as “only three kinases were significantly degraded”. The “TGI (tumor growth inhibition)” value was 62% in [1] (10 mg/kg PO qd) and 164% in [1] (30 mg/kg PO qd).
